Laboratory results from patent publication US10947252B2, “Inhibitors of KEAP1-Nrf2 protein-protein interaction” (Janssen Pharmaceutica NV, priority 2018, dated 2021).
pEC50, pKd: −log10 of the molar value.

Legend:
[1] = biological target: Kelch domain of human KEAP1 (321-624 aa) (Homo sapiens (Human), UniProt Q14145); test: KEAP1 KELCH ThermoFluor binding assay; conditions: KEAP Kelch […], 1,8-ANS, pH 7.0, average of results obtained, read-out: Tf Kd;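 note: Ligand-induced melting temperature shift of E. coli-expressed KEAP1 Kelch protein, Kd estimated from concentration-response curves of ΔTm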
Chain of Kelch domain of human KEAP1 (321-624 aa) (Q14145 321-624): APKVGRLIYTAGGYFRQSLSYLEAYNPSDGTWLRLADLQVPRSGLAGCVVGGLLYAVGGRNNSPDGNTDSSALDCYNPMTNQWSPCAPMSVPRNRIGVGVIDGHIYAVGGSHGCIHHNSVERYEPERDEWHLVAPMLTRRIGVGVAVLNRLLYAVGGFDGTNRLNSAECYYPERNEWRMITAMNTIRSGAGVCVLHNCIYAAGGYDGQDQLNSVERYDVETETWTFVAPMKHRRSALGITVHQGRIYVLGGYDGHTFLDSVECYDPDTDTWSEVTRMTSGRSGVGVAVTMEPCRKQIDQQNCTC

[2] = tested on: Glo-Response ARE-luc2P HEK293 cell line; test: ARE luciferase reporter cell-based assay; conditions: Homo sapiens, HEK293, 24 h, average of results obtained;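 note: luciferase signal tracks Nrf2 activation of the ARE once compounds disrupt KEAP1-Nrf2 binding, read with One-Glo reagent, DMSO serving as low control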

pKd [1]	Compound	pEC50 [2]
> 9.00	CCn1nnc2c(C)c([C@@H](CC(=O)O)c3ccc(C)c(CN4C[C@@H]5CCCCN5c5ncccc5S4(=O)=O)n3)ccc21 (single isomer, unassigned) [Example 303, (*R)-3-(6-(((*S)-5,5-Dioxido-7,7a,8,9,10,11-hexahydro-6H-dipyrido[2,1-d:2′,3′-][1,2,5]thiadiazepin-6-yl)methyl)-5-methylpyridin-2-yl)-3-(1-ethyl-4-methyl-1H-benzo[d][1,2,3]triazol-5-yl)propanoic Acid]	7.57
> 9.00	CCn1nnc2c(C)c([C@H](CC(=O)O)c3ccc(C)c(CN4C[C@H]5CCCCN5c5ncccc5S4(=O)=O)n3)ccc21 (single isomer, unassigned) [Example 305, (*S)-3-(6-(((*R)-5,5-Dioxido-7,7a,8,9,10,11-hexahydro-6H-dipyrido[2,1-d:2′,3′-][1,2,5]thiadiazepin-6-yl)methyl)-5-methylpyridin-2-yl)-3-(1-ethyl-4-methyl-1H-benzo[d][1,2,3]triazol-5-yl)propanoic Acid]	8.77
> 9.00	CCn1nnc2c(C)c([C@@H](CC(=O)O)c3ccc(C)c(CN4C[C@H]5CCCCN5c5ncccc5S4(=O)=O)n3)ccc21 (single isomer, unassigned) [Example 306, (*R)-3-(6-(((*R)-5,5-Dioxido-7,7a,8,9,10,11-hexahydro-6H-dipyrido[2,1-d:2′,3′-f][1,2,5]thiadiazepin-6-yl)methyl)-5-methylpyridin-2-yl)-3-(1-ethyl-4-methyl-1H-benzo[d][1,2,3]triazol-5-yl)propanoic Acid]	8.03
> 9.00	Cc1ccc([C@H](CC(=O)O)c2ccn3c(C(F)(F)F)nnc3c2C)cc1CN1CC2(CC2)Oc2ncc(F)cc2S1(=O)=O (single isomer, unassigned) [Example 311, (*S)-3-(3-((8′-Fluoro-1′,1′-dioxidospiro[cyclopropane-1,4′-pyrido[2,3-b][1,4,5]oxathiazepin]-2′(3′H)-yl)methyl)-4-methylphenyl)-3-(8-methyl-3-(trifluoromethyl)-[1,2,4]triazolo[4,3-a]pyridin-7-yl)propanoic Acid]	8.03
> 9.00	Cc1cnc2c(c1)S(=O)(=O)N(Cc1cc([C@@H](c3ccn4c(C(F)(F)F)nnc4c3C)C(C)(C)C(=O)O)ccc1C)CC1(CC1)O2 (single isomer, unassigned) [Example 314, (*S)-2,2-Dimethyl-3-(4-methyl-3-((8′-methyl-1′,1′-dioxidospiro[cyclopropane-1,4′-pyrido[2,3-b][1,4,5]oxathiazepin]-2′(3′H)-yl)methyl)phenyl)-3-(8-methyl-3-(trifluoromethyl)-[1,2,4]triazolo[4,3-a]pyridin-7-yl)propanoic Acid]	9.00
6.54	Cc1cnc2c(c1)S(=O)(=O)N(Cc1cc([C@H](c3ccn4c(C(F)(F)F)nnc4c3C)C(C)(C)C(=O)O)ccc1C)CC1(CC1)O2 (single isomer, unassigned) [Example 315, (*R)-2,2-Dimethyl-3-(4-methyl-3-((8′-methyl-1′,1′-dioxidospiro[cyclopropane-1,4′-pyrido[2,3-b][1,4,5]oxathiazepin]-2′(3′H)-yl)methyl)phenyl)-3-(8-methyl-3-(trifluoromethyl)-[1,2,4]triazolo[4,3-a]pyridin-7-yl)propanoic Acid]	6.83
> 9.00	Cc1ccc([C@@H](c2ccn3c(C(F)(F)F)nnc3c2C)C(C)(C)C(=O)O)cc1CN1CC2(CC2)Oc2ncccc2S1(=O)=O (single isomer, unassigned) [Example 317, (*S)-3-(3-((1′,1′-Dioxidospiro[cyclopropane-1,4′-pyrido[2,3-b][1,4,5]oxathiazepin]-2′(3′H)-yl)methyl)-4-methylphenyl)-2,2-dimethyl-3-(8-methyl-3-(trifluoromethyl)-[1,2,4]triazolo[4,3-a]pyridin-7-yl)propanoic Acid]	8.72
5.70	Cc1ccc([C@H](c2ccn3c(C(F)(F)F)nnc3c2C)C(C)(C)C(=O)O)cc1CN1CC2(CC2)Oc2ncccc2S1(=O)=O (single isomer, unassigned) [Example 318, (*R)-3-(3-((1′,1′-Dioxidospiro[cyclopropane-1,4′-pyrido[2,3-b][1,4,5]oxathiazepin]-2′(3′H)-yl)methyl)-4-methylphenyl)-2,2-dimethyl-3-(8-methyl-3-(trifluoromethyl)-[1,2,4]triazolo[4,3-a]pyridin-7-yl)propanoic Acid]	6.22
6.08	Cc1ccc([C@@H](c2ccn3c(C(F)(F)F)nnc3c2)C(C)(C)C(=O)O)cc1CN1CC2(CCOCC2)Oc2ncccc2S1(=O)=O (single isomer, unassigned) [Example 320, (*S)-3-(3-((1′,1′-Dioxido-2,3,5,6-tetrahydrospiro[pyran-4,4′-pyrido[2,3-b][1,4,5]oxathiazepin]-2′(3′H)-yl)methyl)-4-methylphenyl)-2,2-dimethyl-3-(3-(trifluoromethyl)-[1,2,4]triazolo[4,3-a]pyridin-7-yl)propanoic Acid]	4.71

Further lines, the compound ahead of its results:

Compound	pKd [1]	pEC50 [2]
Cc1ccc([C@@H](CC(=O)O)c2ccn3c(C(F)(F)F)nnc3c2C)cc1CN1C[C@@H]2CCCCN2c2ncccc2S1(=O)=O (single isomer, unassigned) [Example 291, (*R)-3-(3-(((*S)-5,5-Dioxido-7,7a,8,9,10,11-hexahydro-6H-dipyrido[2,1-d:2′,3′-][1,2,5]thiadiazepin-6-yl)methyl)-4-methylphenyl)-3-(8-methyl-3-(trifluoromethyl)-[1,2,4]triazolo[4,3-a]pyridin-7-yl)propanoic Acid]	> 9.00	7.06
Cc1ccc([C@H](CC(=O)O)c2ccn3c(C(F)(F)F)nnc3c2C)cc1CN1C[C@@H]2CCN2c2ncccc2S1(=O)=O (single isomer, unassigned) [Example 292, (*S)-3-(3-(((*S)-5,5-Dioxido-7,7a,8,9-tetrahydro-6H-azeto[2,1-d]pyrido[2,3-f][1,2,5]thiadiazepin-6-yl)methyl)-4-methylphenyl)-3-(8-methyl-3-(trifluoromethyl)-[1,2,4]triazolo[4,3-a]pyridin-7-yl)propanoic Acid]	> 9.00	7.17
Cc1ccc([C@@H](CC(=O)O)c2ccn3c(C(F)(F)F)nnc3c2C)cc1CN1C[C@@H]2CCN2c2ncccc2S1(=O)=O (single isomer, unassigned) [Example 293, (*R)-3-(3-(((*S)-5,5-Dioxido-7,7a, 8,9-tetrahydro-6H-azeto[2,1-d]pyrido[2,3-f][1,2,5]thiadiazepin-6-yl)methyl)-4-methylphenyl)-3-(8-methyl-3-(trifluoromethyl)-[1,2,4]triazolo[4,3-a]pyridin-7-yl)propanoic Acid]	8.59	6.05
Cc1ccc([C@H](CC(=O)O)c2ccn3c(C(F)(F)F)nnc3c2C)cc1CN1C[C@H]2CCN2c2ncccc2S1(=O)=O (single isomer, unassigned) [Example 294, (*S)-3-(3-(((*R)-5,5-Dioxido-7,7a, 8,9-tetrahydro-6H-azeto[2,1-d]pyrido[2,3-f][1,2,5]thiadiazepin-6-yl)methyl)-4-methylphenyl)-3-(8-methyl-3-(trifluoromethyl)-[1,2,4]triazolo[4,3-a]pyridin-7-yl)propanoic Acid]	8.79	6.57
Cc1ccc([C@@H](CC(=O)O)c2ccn3c(C(F)(F)F)nnc3c2C)cc1CN1C[C@H]2CCN2c2ncccc2S1(=O)=O (single isomer, unassigned) [Example 295, (*R)-3-(3-(((*R)-5,5-Dioxido-7,7a,8,9-tetrahydro-6H-azeto[2,1-d]pyrido[2,3-f][1,2,5]thiadiazepin-6-yl)methyl)-4-methylphenyl)-3-(8-methyl-3-(trifluoromethyl)-[1,2,4]triazolo[4,3-a]pyridin-7-yl)propanoic Acid]	8.09	5.68
CCn1nnc2c(C)c([C@H](CC(=O)O)c3ccc(C)c(CN4C[C@H]5CCCN5c5ncccc5S4(=O)=O)n3)ccc21 (single isomer, unassigned) [Example 297, (*S)-3-(6-(((R)-5,5-Dioxido-7a,8,9,10-tetrahydropyrido[2,3-f]pyrrolo[2,1-d][1,2,5]thiadiazepin-6(7H)-yl)methyl)-5-methylpyridin-2-yl)-3-(1-ethyl-4-methyl-1H-benzo[d][1,2,3]triazol-5-yl)propanoic Acid]	> 9.00	8.22
CCn1nnc2c(C)c([C@@H](CC(=O)O)c3ccc(C)c(CN4C[C@H]5CCCN5c5ncccc5S4(=O)=O)n3)ccc21 (single isomer, unassigned) [Example 298, (*R)-3-(6-(((R)-5,5-Dioxido-7a,8,9,10-tetrahydropyrido[2,3-f]pyrrolo[2,1-d][1,2,5]thiadiazepin-6(7H)-yl)methyl)-5-methylpyridin-2-yl)-3-(1-ethyl-4-methyl-1H-benzo[d][1,2,3]triazol-5-yl)propanoic Acid]	> 9.00	7.67
Cc1ccc([C@H](CC(=O)O)c2ccn3c(C(F)(F)F)nnc3c2C)cc1CN1C[C@H]2CCCCN2c2ccccc2S1(=O)=O (single isomer, unassigned) [Example 300, (*S)-3-(3-(((*R)-5,5-Dioxido-7,7a,8,9,10,11-hexahydro-6H-benzo[f]pyrido[2,1-d][1,2,5]thiadiazepin-6-yl)methyl)-4-methylphenyl)-3-(8-methyl-3-(trifluoromethyl)-[1,2,4]triazolo[4,3-a]pyridin-7-yl)propanoic Acid]	> 9.00	8.30
CCn1nnc2c(C)c([C@H](CC(=O)O)c3ccc(C)c(CN4C[C@@H]5CCCCN5c5ncccc5S4(=O)=O)n3)ccc21 (single isomer, unassigned) [Example 302, (*S)-3-(6-(((*S)-5,5-Dioxido-7,7a,8,9,10,11-hexahydro-6H-dipyrido[2,1-d:2′,3′-][1,2,5]thiadiazepin-6-yl)methyl)-5-methylpyridin-2-yl)-3-(1-ethyl-4-methyl-1H-benzo[d][1,2,3]triazol-5-yl)propanoic Acid]	> 9.00	8.55
